These results are taken from US20170275371A1, “Methods Of Treatment” (GlaxoSmithKline Intellectual Property Development Limited, priority 2015, published 2017).

“And” between values parts separate entries of the source, which are not always exact repeats. Identical values can stand only once. “Also recorded” adds a separate entry of the source.

For experiment [1], the system named is OX40 expression on human PBMCs. Description: In vitro human PBMC assay, OX40 expression by flow cytometry. Type of experiment: cell-based. The note with it: 24 hours, 0.01 μg/ml-1,000 μg/ml. The procedure:
In vitro human peripheral blood mononuclear cell (PBMC) assay was performed to assess the effect of CRX601 on OX40 expression. Freshly isolated human PBMCs were checked for viability and were cultured in AIM-V serum free media at a density of two million cells per well in a 24-well non tissue culture treated plate. PBMCs were stimulated with a dose concentration (0.01 μg/ml-1,000 μg/ml, including a vehicle blank) of CRX-601 for 24 hours. By the end of incubation, cells were collected for flow cytometry assessment of OX40 expression.

The subject of experiment [2] is CT-26 colon carcinoma tumors. The experiment is described as follows: CT-26 syngeneic mouse model of colon cancer, i.p. dosing (Examples 1-4). Conditions: for tumor growth inhibition over time: TLR4 agonist 4, 20, 100 ug per mouse i.p. biweekly, vs vehicle (2% glycerol); for survivability: TLR4 agonist i.p. biweekly, vs vehicle. Format: in vivo.
Experiment [3] has as its system CT-26 tumor cells. The experiment is described as follows: CT-26 tumor re-challenge of tumor-free mice (Studies 6 and 7). Conditions: vs naive control mice. Format: in vivo, mouse. As to the method: The in vivo anti-tumor efficacy of the TLR4 agonist (CRX601) was assessed in the murine CT-26 colon carcinoma syngeneic solid tumor model as a monotherapy and in combination with a rate anti-mouse OX40 antibody clone OX86. Seven to eight week old female Balb/c mice (BALB/cAnNCrl, Charles River) were used in these studies. Murine CT-26 colon carcinoma cells (ATCC catalog number CRL-2638 lot#59227052) were cultured in RPMI growth medium supplemented with 10% fetal bovine serum (FBS) in a humidified 37° C. incubator with 5% CO2. CT-26 cells cultured in logarithmic growth were harvested from tissue culture flasks and centrifuged for 5 minutes at 450×g at 4° C. for ten minutes to pellet cells. The supernatant was discarded, and cells were washed in ice cold phosphate buffered saline (PBS) without calcium and magnesium and centrifuged again for 5 minutes at 450×g at 4° C. for ten minutes to pellet cells. The cells were resuspended in sterile RPMI media without FBS and adjusted to a cell concentration of 500,000 cells/ml. […] Tumor volume was calculated using the formula (0.52)×(Length)×(Width^2). In studies 6 and 7, tumor-free mice were re-challenged with CT-26 tumor cells as described above, on the opposite flank from the original inoculation site and tumor growth was monitored, as described above. […]

The test system of experiment [4] is CT-26 colon carcinoma tumors. The experiment is described as follows: In vivo anti-tumor efficacy in murine CT-26 colon carcinoma syngeneic solid tumor model (Example 5, Studies 1-4, 6, 7): tumor growth and survival. Set-up: species or system mouse. The note with it: for tumor growth inhibition vs control Group 5: 12 days. As to the method: The in vivo anti-tumor efficacy of the TLR4 agonist (CRX601) was assessed in the murine CT-26 colon carcinoma syngeneic solid tumor model as a monotherapy and in combination with a rate anti-mouse OX40 antibody clone OX86. Seven to eight week old female Balb/c mice (BALB/cAnNCrl, Charles River) were used in these studies. Murine CT-26 colon carcinoma cells (ATCC catalog number CRL-2638 lot#59227052) were cultured in RPMI growth medium supplemented with 10% fetal bovine serum (FBS) in a humidified 37° C. incubator with 5% CO2. CT-26 cells cultured in logarithmic growth were harvested from tissue culture flasks and centrifuged for 5 minutes at 450×g at 4° C. […] to pellet cells. The supernatant was discarded, and cells were washed in ice cold phosphate buffered saline (PBS) without calcium and magnesium and centrifuged again for 5 minutes at 450×g at 4° C. […] to pellet cells. The cells were resuspended in sterile RPMI media without FBS and adjusted to a cell concentration of 500,000 cells/ml. 100 μl of the cell stock was implanted via subcutaneous injection into the right flank of each Balb/c mouse. After ten or eleven days when the average tumor size reached approximately 100 mm^3, mice were randomized into study cohorts according to tumor size and the first treatment dose was given. The TLR4 agonist (CRX601) or vehicle was dosed via a systemic intravenous or direct intratumoral injection as indicated. The CRX-601 vehicle used for intravenous and intratumoral dosing was […] where indicated. For CRX-601 liposomal intratumoral dosing, a DOPC/CHOL liposome prepared by GSK Lot #1783-157-B was used. The rat anti-mouse OX40 receptor antibody (clone OX86) (expressed and purified in-house from the rat hybridoma Grits ID 50776, BP232 2013) or Rat IgG1 isotype control antibody (BioXCell catalog # BE0088) was dosed via an intraperitoneal injection given twice per week for a total of six doses. Caliper measurements were taken three times per week to assess tumor growth, and mice with tumors <2,000 mm^3 were maintained on study from 30 up to approximately 115 days. Mice with tumors >2,000 mm^3 for 2 consecutive measurements or mice with tumors which formed open ulcers were removed from the study. Tumor volume was calculated using the formula (0.52)×(Length)×(Width^2). In studies 6 and 7, tumor-free mice were re-challenged with CT-26 tumor cells as described above, on the opposite flank from the original inoculation site and tumor growth was monitored, as described above. All studies were conducted in accordance with the GSK Policy on the Care, Welfare and Treatment of Laboratory Animals and were reviewed by the Institutional Animal Care and Use Committee at GSK.
For studies 1-4, to determine significance of tumor growth inhibition, tumor volumes at 11 (study 1), 15 (studies 2 and 3), or 19 (study 4) days after first dose were compared between the different treatment groups. Prior to the analysis, tumor volumes were natural log transformed due to the inequality of variance in the different treatment groups. ANOVA followed by pair-wise comparison was then carried out on the log transformed data. SAS 9.3 and R 3.0.2 analysis software was used. Kaplan-Meier (KM) method was carried out to estimate the survival probability of different treatment groups at a given time. The event for survival analysis was tumor volume of 2000 mm^3 or tumor ulceration, whichever came first. The exact time to cut-off volume was estimated by fitting a linear line between log tumor volume and day of two observations, the first observation that exceed the cut-off volume and the one observation that immediately preceded the cut-off volume. The median time to endpoint and its corresponding 95% confidence interval was calculated. Whether or not KM survival curves were statistically different between any two groups was then tested by log-rank test. […]

Experiment [5] relates to TNF alpha and IL-12p70. Description: Multiplex cytokine analysis of plasma from CT-26 mice (Study 5). Conditions: CRX-601 10 ug, OX-86, or both. Format: in vivo, mouse. As to the method: Tumors, blood and tissues were harvested from CT-26 mice on day 0, day 1 and day 8 after first CRX-601 dosing. Mouse white blood cells and dissociated tumor single cells were stained freshly with surface or intracellular staining antibodies for multicolor flow cytometry analysis for immunephenotyping. Multiplex cytokine analysis was performed using mouse plasma samples from the same study.
Results are the mean of five animals per cohort.

[6] abbreviates: Study 1, 50 ug intratumoral, day 42.
The mark [7] stands for this setting: Study 2, 100 ug intravenous, day 32.

Turning to `CCCCCCCCCCC[C@H](CC(=O)N[C@H]1[C@H](OC[C@H](NC(=O)C[C@@H](CCCCCCCCCCC)OCCCCCCCCCC)C(=O)O)O[C@H](CO)[C@@H](OP(=O)(O)O)[C@@H]1OC(=O)C[C@@H](CCCCCCCCCCC)OCCCCCCCCCC)OCCCCCCCCCC` [CRX-601], the “OX40 expression on dendritic cells” value in experiment [1] is given as “quick upregulation of OX40 receptor expression”. Besides, the “OX40 expression on human CD4+ T cells” value in experiment [1] was “quick upregulation of OX40 receptor expression”. In addition, the “OX40 expression on monocytes” value in experiment [1] is “quick upregulation of OX40 receptor expression”. Also, the “tumor growth inhibition over time” value in experiment [2] is “inhibited tumor growth in a dose-dependent manner; also recorded: dose-dependent anti-tumor activity”. For the same molecule, the survivability result in experiment [2] was “Dose dependence was also seen in the survivability”. In addition, the “tumor growth after CT26 re-challenge of tumor-free mice” value is “persistent anti-tumor memory immunity” in experiment [3] (Study 6, re-challenge on day 68) and “persistent anti-tumor memory” in experiment [3] (Study 7, re-challenge on day 80). The “tumor-free mice among mice remaining on study” value in experiment [4] (Study 1, 10 ug intratumoral, day 42) is given as “single mouse remaining in the 10 μg group was tumor-free”; in experiment [4] (setting [6]) it was “Three of the four”; in experiment [4] (setting [7]), “One of the three”. For the same molecule, the “tumor growth inhibition vs vehicle” value in experiment [4] (Study 1, 10 ug/mouse intratumoral twice per week x6, 11 days after initial dose) is “statistically significant”; in experiment [4] (Study 1, 50 ug/mouse intratumoral single dose, 11 days after initial dose), “statistically significant”; in experiment [4] (Study 2, 10 ug/mouse intravenous twice per week x6, 15 days after initial dose), “statistically significant”; in experiment [4] (Study 2, 100 ug/mouse intravenous single dose, 15 days after initial dose) it was “statistically significant”; in experiment [4] (Study 3, CRX-601 10 ug/mouse iv once per week x3, alone, 15 days after first dose), “did not show statistically significant tumor growth inhibition”; in experiment [4] (Study 3, CRX-601 25 ug/mouse iv once per week x3, alone, 15 days after first dose), “did not show statistically significant tumor growth inhibition”. The “tumor volume of remaining mouse not tumor-free” value in experiment [4] (setting [6]) stood at 854.19 mm^3. Moreover, the “increase in survival vs vehicle” value in experiment [4] (Study 1, 50 ug intratumoral, day 42 post tumor cell inoculation) was “statistically significant”; in experiment [4] (Study 2, 100 ug intravenous, day 32 post tumor cell inoculation) it was “statistically significant increase”. In addition, the “anti-tumor activity (tumor growth inhibition over time)” value in experiment [4] (Study 1, intratumoral 0.1, 1, 10 ug twice per week x6 or 50 ug single dose) was “dose-dependent anti-tumor activity”; in experiment [4] (Study 2, intravenous 1, 10 ug twice per week x6 or 100 ug single dose) it was “dose-dependent anti-tumor activity”. Also, in experiment [4] (Study 2, 10 ug intravenous, day 32), the “tumor volume of single remaining mouse” value is given as 188.0 mm^3. For the same molecule, the “tumor volumes of remaining mice not tumor-free” value in experiment [4] (setting [7]) is 1500.49 mm^3 and 962.61 mm^3. Also, the “anti-tumor activity (tumor volume over time)” value in experiment [4] (Study 4, OX-86 25 ug/mouse twice per week x6, CRX-601 25 ug/mouse iv 1x/week x3, alone or combined) is “Anti-tumor activity was observed”. Also, the “mice remaining tumor-free at study end” value in experiment [4] (Study 4, day 111, 25 ug/mouse each agent, monotherapy arms with Rat IgG1 or vehicle, groups of 10) is “two”. The “tumor growth inhibition vs control Group 5” value in experiment [4] (Study 6, CRX-601 25 ug intratumoral 1x/week x3 + Rat IgG1 (Group 6), 0.5% glycerol/4% dextrose) is “did not show statistically significant tumor growth inhibition”; in experiment [4] (Study 7, CRX-601 25 ug intratumoral, DOPC/CHOL liposomal formulation + Rat IgG1 (Group 7)) it was “statistically significant”. The “tumor growth inhibition vs control Group 1” value in experiment [4] (Study 6, CRX-601 25 ug iv 1x/week x3 + Rat IgG1 (Group 2), 0.5% glycerol/4% dextrose, 12 days after first dose) was “did not show statistically significant tumor growth inhibition”; in experiment [4] (Study 7, CRX-601 25 ug iv (0.5% Glycerol/4% dextrose) + Rat IgG1 (Group 2), 12 days after initial dose), “statistically significant”. The “mice showing full tumor regressions” value in experiment [4] (Study 7, CRX601 25 ug IV alone (Group 2) or with OX86 IP (Group 4), day 80) is reported as 5 out of 10. Also, the “increase in survival vs control Group 1” value in experiment [4] (Study 7, CRX601 monotherapy IV (Group 2), 80 days after first dose) is given as “statistically significant”. Also, the “increase in survival vs control Group 5” value in experiment [4] (Study 7, CRX601 monotherapy intratumoral, DOPC/CHOL liposome formulation (Group 7), 80 days) is “statistically significant”. The “mice fully regressed and tumor-free” value in experiment [4] (Study 7, intratumoral liposomal arms: Group 8 combination, Group 6 OX86, Group 7 CRX601, day 80, groups of 10) is given as 2 mice. The TNF alpha entry in experiment [5] (1 and 8 days post dosing) is on record as “increase”. Moreover, the IL-12p70 result in experiment [5] (only detectable at 8 days post dosing) is “increase”.
Consider `CCCCCCCCCCC[C@H](CC(=O)N[C@H]1[C@H](OC[C@H](NC(=O)C[C@@H](CCCCCCCCCCC)OC(=O)CCCCCCCCC)C(=O)O)O[C@H](CO)[C@@H](OP(=O)(O)O)[C@@H]1OC(=O)C[C@@H](CCCCCCCCCCC)OC(=O)CCCCCCCCC)OC(=O)CCCCCCCCC` [CRX-527], for which, in experiment [2], the “tumor growth inhibition over time” value is “inhibited tumor growth in a dose-dependent manner; also recorded: dose-dependent anti-tumor activity” and the survivability entry is “Dose dependence was also seen in the survivability”.
